Data as given in article PMC7367283, “A PIP2 substitute mediates voltage sensor-pore coupling in KCNQ activation” (Communications Biology, 2020).

Target: T1, HCN4 (Homo sapiens, UniProt Q9Y3Q4)
T1 sequence (Q9Y3Q4 1-1203): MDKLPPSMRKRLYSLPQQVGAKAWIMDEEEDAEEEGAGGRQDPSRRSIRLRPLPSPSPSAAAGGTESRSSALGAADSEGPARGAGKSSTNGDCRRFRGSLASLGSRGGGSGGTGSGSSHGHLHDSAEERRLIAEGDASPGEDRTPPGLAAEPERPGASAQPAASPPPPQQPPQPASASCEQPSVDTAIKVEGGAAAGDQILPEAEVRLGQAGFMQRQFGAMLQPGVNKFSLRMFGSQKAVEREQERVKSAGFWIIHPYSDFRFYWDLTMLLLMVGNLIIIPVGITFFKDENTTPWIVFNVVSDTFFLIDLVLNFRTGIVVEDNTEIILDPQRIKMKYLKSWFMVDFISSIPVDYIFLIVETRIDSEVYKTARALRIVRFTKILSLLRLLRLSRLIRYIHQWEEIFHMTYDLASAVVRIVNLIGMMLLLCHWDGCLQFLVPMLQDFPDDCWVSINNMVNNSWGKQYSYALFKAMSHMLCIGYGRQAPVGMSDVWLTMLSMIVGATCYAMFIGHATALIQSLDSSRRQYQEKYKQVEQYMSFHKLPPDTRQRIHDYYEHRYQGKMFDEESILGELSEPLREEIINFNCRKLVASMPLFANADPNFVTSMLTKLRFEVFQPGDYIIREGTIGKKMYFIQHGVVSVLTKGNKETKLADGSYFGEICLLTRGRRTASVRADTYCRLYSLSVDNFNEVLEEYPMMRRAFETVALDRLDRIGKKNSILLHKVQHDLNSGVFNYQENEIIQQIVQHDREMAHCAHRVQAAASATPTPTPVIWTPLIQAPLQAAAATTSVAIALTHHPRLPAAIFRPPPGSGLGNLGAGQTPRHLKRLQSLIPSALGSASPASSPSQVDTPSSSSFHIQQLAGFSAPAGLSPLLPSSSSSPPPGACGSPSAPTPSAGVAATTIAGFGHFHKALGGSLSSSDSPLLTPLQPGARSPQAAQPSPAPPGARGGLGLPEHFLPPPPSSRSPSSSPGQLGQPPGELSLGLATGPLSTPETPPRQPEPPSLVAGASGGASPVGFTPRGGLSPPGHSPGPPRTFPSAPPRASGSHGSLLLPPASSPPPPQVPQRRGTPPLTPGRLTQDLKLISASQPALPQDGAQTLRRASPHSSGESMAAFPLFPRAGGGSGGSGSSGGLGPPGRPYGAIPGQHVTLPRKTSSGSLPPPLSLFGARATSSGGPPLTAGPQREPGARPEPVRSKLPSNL
Assay: Two-electrode voltage clamp of HCN4 in Xenopus oocytes
Format: cell-based
Conditions: 10 µM CP1
Excerpt: Since CP1 has a similar effect to PIP2 in mediating VSD-pore coupling in KCNQ channels, we tested if CP1 has effects on other ion channels that are also sensitive to PIP2 or are voltage activated and share general structural features of the VSD and the pore with KCNQ. […] On the other hand, NaV1.5 and KV4.2 are voltage-gated ion channels.
Fig. 6 Effects of CP1 on other ion channels expressed in Xenopus oocytes. a Currents of Kir1.1, CaV1.2, NaV1.5, hERG, and KV4.2 before and after application of 10 µM CP1, respectively. The voltages for holding, test, and returning pulses were Kir1.1, 0 mV, −100 to +60 mV, 0; CaV1.2, −100 mV, −100 to +60, −100 mV; NaV1.5, −100, −120 to +40 mV, −120 mV; hERG, −80 mV, −90 to +60 mV, −60 mV; KV4.2, −80 mV, −100 mV to +80 mV, −40 mV; HCN4, −30 mV, −30 to −140 mV, −120 mV. b Current–voltage relations of Kir1.1 channel in the absence or presence of 10 µM CP1 (n = 7). c–g G–V relations of indicated channels with and without 10 µM CP1. The ΔV1/2 of G–V relations (mV) are CaV1.2, 3.38 ± 0.71 mV (c); NaV1.5, −2.26 ± 0.95 mV (d); hERG, 6.85 ± 1.81 mV (e); KV 4.2, −2.26 ± 2.88 mV (f); HCN4, 17.13 ± 1.59 mV (g).
Complementary DNA (cDNA) encoding human KCNQ1 (UniProtKB/Swiss‐Prot under accession no. P51787), KCNQ2 (O43526), KCNQ3 (O43525), KCNE1 (P15382), Kir1.1 (P48048), hERG (Q12809), KV4.2 (Q63881), NaV1.5 (Q14524), NaV β1 (Q07699), CaV1.2 (Q13936), CaV β1a (Q02641), CaV α2/δ1 (P54289), and HCN4 (Q9Y3Q4) were subcloned into oocyte expression vectors, respectively. Site-directed mutations of the KCNQ1 channel were all produced by overlap extension polymerase chain reaction (PCR) with high-fidelity Pfu polymerase (Stratagene, CA). The presence of the desired mutation was verified by sequencing the PCR-amplified regions. All the primer sequences used in this study are available in Supplementary Table 1. The complementary RNA (cRNA) of all these channels and mutations was transcribed in vitro with the T3, T7, or SP6 polymerase mMessage mMachine kit (Invitrogen, Thermo Fisher Scientific, MO).
The whole-oocyte ionic currents were recorded with a GeneClamp 500B amplifier (Axon Instruments, CA) or iTEV90 amplifier (HEKA, Germany) and then sampled at 1 kHz and low-pass-filtered at 2 kHz. The Patchmaster software (HEKA, Germany) was used to acquire data. The Kir1.1 current was recorded with a high K^+ bath solution containing (in mM) 96 KCl, 4 NaCl, 1 CaCl2, 2 MgCl2, and 10 HEPES, pH 7.3–7.4. The HCN4 current was recorded in ND66 solution containing (in mM) 66 NaCl, 32 KCl, 1.8 CaCl2, 1 MgCl2, and 5 HEPES, pH 7.6. All the other potassium channels were recorded in ND96 solution. The currents of CaV1.2 channel were recorded in 40 mM Ba^2+ bath solution containing (in mM) 40 Ba(OH)2, 50 TEA-OH, 2 KOH, and 5 HEPES, adjusted to pH 7.4 with methanesulfonic acid. CP1 (DISODIUM 5-BROMO-2-[9-CHLORO-3-(SULFONATOOXY) NAPHTHO [1,2-B] THIEN-2-YL]-1H-INDOL-3-YL SULFATE, Sigma-Aldrich, MO) and Chromanol 293B (Sigma-Aldrich, MO) were dissolved in bath solutions. All the chemicals were purchased from Sigma-Aldrich. To measure the I–V relations of the Kir1.1 channel, the test voltage was set from −100 to +60 mV for 1 s with 20-mV increments. The test pulses were stepped from a holding potential of 0 mV and then stepped back to 0 mV. The HCN4 currents were recorded by a test pulse between −30 and −140 mV in 10-mV step from a holding potential of −30 mV. For all the other potassium channels and CaV1.2 channel, the holding potential was −80 or −100 mV, and the test pulse was applied with 10-mV increment, which was followed with a repolarization pulse at −40 mV before returning to the holding potential. The durations of test and the repolarization pulse vary for different channels to allow the activation and deactivation of the channel to reach their steady states.

- ΔV1/2 of G–V relations: 17.13 ± 1.59 mV
- G/Gmax Mean (Fig. 6g) (voltage -30 mV): 0.0988
- G/Gmax Mean (Fig. 6g) (voltage -40 mV): 0.0945
- G/Gmax Mean (Fig. 6g) (voltage -50 mV): 0.1008
- G/Gmax Mean (Fig. 6g) (voltage -60 mV): 0.1162
- G/Gmax Mean (Fig. 6g) (voltage -70 mV): 0.1464
- G/Gmax Mean (Fig. 6g) (voltage -80 mV): 0.2025
- G/Gmax Mean (Fig. 6g) (voltage -90 mV): 0.2959
- G/Gmax Mean (Fig. 6g) (voltage -100 mV): 0.4355
- G/Gmax Mean (Fig. 6g) (voltage -110 mV): 0.6065
- G/Gmax Mean (Fig. 6g) (voltage -120 mV): 0.7756
- G/Gmax Mean (Fig. 6g) (voltage -130 mV): 0.9097
- G/Gmax Mean (Fig. 6g) (voltage -140 mV): 1.0000
Structure (SMILES): O=S(=O)([O-])Oc1c(-c2sc3c(ccc4cccc(Cl)c43)c2OS(=O)(=O)[O-])[nH]c2ccc(Br)cc12.[Na+].[Na+] [CP1, DISODIUM 5-BROMO-2-[9-CHLORO-3-(SULFONATOOXY) NAPHTHO [1,2-B] THIEN-2-YL]-1H-INDOL-3-YL SULFATE]
